From patent US5843954A, “Camptothecin derivatives, preparations thereof and antitumor agents” (priority 1994, dated 1998)
In brackets after ≈: the same amount, converted by molar mass. Structures can show the parent of a compound that is named as a salt.

Assays:
mouse leukemia L1210 = assay: Antitumor activity for L1210 (life prolonging effect, mouse leukemia transplanted intraperitoneally); assay type: in vivo; settings: for 40-day survivors: group of six female CDF1 mice; for Therapeutic Index (Maximum tolerable dose/Minimum effective dose): i.p., L1210, CDF1 mice; for minimal effective dose: Mus musculus, L1210, ip, read-out: Minimum effective dose
Description: (§1) 5×10^5 cells of mouse leukemia L1210 were transplanted intraperitoneally to a group of six female CDF1 mice (7 weeks old, body weight 17-19 g). The test compound was administered intraperitoneally on day 1, 5 and 9 and its life prolonging effect was observed.
(§2) In a case of the administration of a test compound as an acid addition salt the test compound was dissolved in water. The total administration amount was 1.56 mg/kg-400 mg/kg. The antitumor activity was expressed by the value (T/C%) wherein T denotes the mean survival days in the drug administered group and C denotes those in the non administered group. In case of equal to or more than 125% the drug is considered to be effective.

[1] = as above; assay type: in vivo; settings: mouse, in vivo, ip; numerator of therapeutic index; i.p. total dose; read-out: Maximum tolerable dose
Description: as §1, §2

[2] = Acute toxicity test by intraperitoneal administration; settings: mouse, in vivo, ip, ICR male mice, 1 week observation
Description: Acute toxicity test was conducted by intraperitoneal administration using a group of twenty ICR male mice (4 weeks old, body weight around 20 g).
LD50 value was calculated by the Richfield-Willcokson method from a lethal ratio observing the fate of mice during 1 week after administration of a test compound.

Water solubility = assay type: physicochemical
[3] = denominator of therapeutic index, i.p. total dose

Row | Structure (SMILES) | Optimum dose: Total dose (mouse leukemia L1210; CDF1 mice, i.p. on day 1, 5 and 9, total dose) [mg/kg] | 40-day survivors (mouse leukemia L1210; at optimum dose) | T/C % (mouse leukemia L1210; at optimum dose, i.p. on day 1, 5 and 9, mean survival days treated/non administered, >=125% effective) [%] | Minimum effective dose (mouse leukemia L1210; [3]) [mg/kg] | Therapeutic Index (Maximum tolerable dose/Minimum effective dose) (mouse leukemia L1210) | MTD [1] [mg/kg] | LD50 at 168 h [2] [mg/kg] | minimal effective dose (mouse leukemia L1210; [3]) [mg/kg] | solubility (Water solubility) [mg/mL]
1 | CC[C@@](O)(C(=O)O)c1cc2n(c(=O)c1CO)Cc1cc3ccccc3nc1-2 [CPT-Na salt, reference compound] | 60 | 0/6 | 203 | 10 | 6 | 60 | 227 | – | –
2 | CCOc1ccc2nc3c(c(C)c2c1)Cn1c-3cc([C@@](O)(CC)C(=O)NCCN(C)C)c(COC(=O)CCSC)c1=O [Compound C1] | – | 0/6 | – | – | 4 | 6.25 | 164 | 1.56 | > 64
3 | CC[C@@](O)(C(=O)NCCN(C)C)c1cc2n(c(=O)c1COC(=O)CCSC)Cc1c-2nc2cc(Br)ccc2c1C [Compound C2] | – | 0/6 | – | – | 8 | 25 | 241 | 3.13 | > 67
4 | CCC(=O)OCc1c([C@@](O)(CC)C(=O)NCCN(C)C)cc2n(c1=O)Cc1c-2nc2ccc(Cl)cc2c1CC [Compound C3] | – | 1/6 | – | – | > 4 | 6.25 | 186 | < 1.56 | 29 (≈ 52.2 mM)
5 | CCCC(=O)OCc1c([C@@](O)(CC)C(=O)NCCN(C)C)cc2n(c1=O)Cc1c-2nc2ccc(Cl)cc2c1CC [Compound C4] | – | 1/6 | – | – | > 4 | 6.25 | 142 | < 1.56 | 41 (≈ 72 mM)
6 | CCc1c2c(nc3ccc(Cl)cc13)-c1cc([C@@](O)(CC)C(=O)NCCN(C)C)c(COC(=O)CCSC)c(=O)n1C2 [Compound C5] | – | 3/6 | – | – | > 4 | 6.25 | 168 | < 1.56 | 21 (≈ 34.9 mM)
7 | CCc1c2c(nc3ccc(Br)cc13)-c1cc([C@@](O)(CC)C(=O)NCCN(C)C)c(COC(=O)CCSC)c(=O)n1C2 [Compound C6] | – | 1/6 | – | – | > 4 | 6.25 | 116 | < 1.56 | 25 (≈ 38.7 mM)
8 | CCc1c2c(nc3ccc(C)cc13)-c1cc([C@@](O)(CC)C(=O)NCCN(C)C)c(COC(=O)CCSC)c(=O)n1C2 [Compound C7] | – | 5/6 | – | – | 32 | 100 | 234 | 3.13 | 21 (≈ 36.2 mM)
9 | CCC(=O)OCc1c([C@@](O)(CC)C(=O)NCCN(C)C)cc2n(c1=O)Cc1c-2nc2cc(F)ccc2c1CC [Compound C8] | – | 4/6 | – | – | 8 | 12.5 | 124 | 1.56 | 20 (≈ 37.1 mM)
10 | CCCC(=O)OCc1c([C@@](O)(CC)C(=O)NCCN(C)C)cc2n(c1=O)Cc1c-2nc2cc(F)ccc2c1CC [Compound C9] | – | 2/6 | – | – | 8 | 12.5 | 152 | 1.56 | > 59
11 | CCc1c2c(nc3cc(F)ccc13)-c1cc([C@@](O)(CC)C(=O)NCCN(C)C)c(COC(=O)CCSC)c(=O)n1C2 [Compound C10] | – | 1/6 | – | – | 8 | 12.5 | 146 | 1.56 | > 62
12 | CCc1c2c(nc3cc(F)ccc13)-c1cc([C@@](O)(CC)C(=O)NCCN(C)C)c(COC(=O)c3ccc(OC)cc3)c(=O)n1C2 [Compound C11] | – | 0/6 | – | – | 8 | 50 | 146 | 6.25 | 8 (≈ 13 mM)
13 | CCc1c2c(nc3cc(Cl)ccc13)-c1cc([C@@](O)(CC)C(=O)NCCN(C)C)c(COC(=O)CCSC)c(=O)n1C2 [Compound C12] | – | 1/6 | – | – | – | 25 | 284 | 6.25 | > 64
14 | CCC(=O)OCc1c([C@@](O)(CC)C(=O)NCCN(C)C)cc2n(c1=O)Cc1c-2nc2cc(F)c(F)cc2c1CC [Compound C13] | – | 0/6 | – | – | – | – | 67.6 | – | > 59
15 | CCCC(=O)OCc1c([C@@](O)(CC)C(=O)NCCN(C)C)cc2n(c1=O)Cc1c-2nc2cc(F)c(F)cc2c1CC [Compound C14] | – | 1/6 | – | – | – | – | 98.3 | – | > 60
